The values below come from patent publication US5661147A, “Imidazoquinazoline derivatives” (Kyowa Hakko Kogyo Co., Ltd., priority 1993, dated 1997).

Where a name gives a salt, the structure may show the parent alone.

For assay [1], the target named is T1, PDE III (cAMP-specific PDE which is inhibited by cGMP) (Canis lupus familiaris, UniProt A0A8I3NYE0).
T1 construct: purified from canine tracheal smooth muscle; from tissue; host or cells: canine tracheal smooth muscle
T1 sequence (A0A8I3NYE0 1-1135): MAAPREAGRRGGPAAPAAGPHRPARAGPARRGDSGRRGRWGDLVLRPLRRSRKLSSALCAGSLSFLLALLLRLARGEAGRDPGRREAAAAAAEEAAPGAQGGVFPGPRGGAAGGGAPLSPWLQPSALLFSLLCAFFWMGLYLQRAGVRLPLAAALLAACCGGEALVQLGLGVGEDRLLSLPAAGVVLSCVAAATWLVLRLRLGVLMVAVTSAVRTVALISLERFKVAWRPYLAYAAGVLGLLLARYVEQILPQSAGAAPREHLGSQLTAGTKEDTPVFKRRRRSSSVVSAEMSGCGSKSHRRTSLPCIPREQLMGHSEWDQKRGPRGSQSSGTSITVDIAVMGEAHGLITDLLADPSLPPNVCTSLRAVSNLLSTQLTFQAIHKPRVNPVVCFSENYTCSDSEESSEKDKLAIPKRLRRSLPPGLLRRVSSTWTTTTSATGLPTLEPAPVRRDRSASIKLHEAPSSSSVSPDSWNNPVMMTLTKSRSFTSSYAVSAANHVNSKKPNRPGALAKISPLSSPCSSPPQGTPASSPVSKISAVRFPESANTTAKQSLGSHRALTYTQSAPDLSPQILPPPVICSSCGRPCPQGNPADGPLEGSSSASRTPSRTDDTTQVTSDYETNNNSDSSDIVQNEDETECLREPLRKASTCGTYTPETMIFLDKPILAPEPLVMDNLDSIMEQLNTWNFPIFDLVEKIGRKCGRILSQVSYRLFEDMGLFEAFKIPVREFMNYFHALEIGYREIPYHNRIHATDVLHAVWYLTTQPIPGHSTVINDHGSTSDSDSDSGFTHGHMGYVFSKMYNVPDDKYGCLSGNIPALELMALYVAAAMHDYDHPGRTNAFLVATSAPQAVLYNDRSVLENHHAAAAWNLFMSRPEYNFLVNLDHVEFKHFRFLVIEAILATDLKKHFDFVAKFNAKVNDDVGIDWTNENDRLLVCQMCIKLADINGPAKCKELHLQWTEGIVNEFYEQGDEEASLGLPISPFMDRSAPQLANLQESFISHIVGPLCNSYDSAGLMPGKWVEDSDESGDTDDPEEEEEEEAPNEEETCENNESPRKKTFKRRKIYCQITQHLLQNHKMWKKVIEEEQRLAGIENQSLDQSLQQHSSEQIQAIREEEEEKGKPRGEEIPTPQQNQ
As to the kind of experiment: Inhibitory activity on PDE III purified from canine tracheal smooth muscle (Test Example 1). The assay is classed as biochemical. Conditions: 1.0 μM [3H]cAMP substrate, 10 μM rolipram added; for inhibition at 1 µM: read-out: PDE Inhibitory activity, PDE III, Percent inhibition. The method, then:
(§1) The reaction was started by addition of an enzyme and stopped by addition of hydrochloric acid after 10 to 30 minutes at 30° C. Thereafter, sodium hydroxide was added to neutralize and 5'-AMP or 5'-GMP was converted into adenosine or guanosine using 5'-nucleotidase. The reaction solution was subjected to DEAE-Sephadex A-25 column. [^3 H]Adenosine [^3 H]guanosine was eluted with distilled water and the radioactivity was measured with a liquid scintillation counter.

For assay [2], the target named is T2, PDE V (cGMP-specific PDE) (Canis lupus familiaris, UniProt O77746).
T2 construct: purified from canine tracheal smooth muscle; from tissue; host or cells: canine tracheal smooth muscle
As to the kind of experiment: Inhibitory activity on PDE V purified from canine tracheal smooth muscle (Test Example 1). The format is biochemical. Conditions: 1.0 μM [3H]cGMP substrate; for inhibition at 0.001 µM: 1 nM, read-out: PDE Inhibitory activity, PDE V, Percent inhibition. The procedure:
The inhibitory activity on PDE derived from canine tracheal smooth muscle
The measurement of the PDE I activity was carried out using 1.0 μM [^3 H]cAMP as a substrate in the presence of 0.4 mM CaCl2 and 20 units/ml calmodulin. The measurement of the PDE II activity was carried out using 1.0 μM [^3 H]cAMP as a substrate in the presence of 10 μM cGMP. The measurement of the PDE III, IV and V activity was carried out using, as a substrate, 1.0 μM [^3 H]cAMP, 1.0 μM [^3 H]cAMP and 1.0 μM [3H]cGMP, respectively. […] Respective reactions were carried out in a buffer having the following composition:
50 mM N,N-bis(2-hydroxyethyl)-2-aminoethanesulfonic acid (pH 7.2), 1 mM MgCl2, 0.1 mg/ml soybean trypsin inhibitor.
as §1

Assay [3] relates to PDE IV (cAMP-specific PDE). The assay is described as follows: Inhibitory activity on PDE IV purified from canine tracheal smooth muscle (Test Example 1). The assay is classed as biochemical. Conditions: 1.0 μM [3H]cAMP substrate, 25 μM cGMP added. The procedure:
as §1

Assay [4] has as its system PDE II (PDE which is activated by cGMP). The assay is described as follows: Inhibitory activity on PDE II purified from canine tracheal smooth muscle (Test Example 1). The assay is classed as biochemical. Conditions: 10 μM; 1.0 μM [3H]cAMP substrate, 10 μM cGMP. The procedure: as §1
The test system of assay [5] is PDE I (PDE which is activated by calmodulin). As to the kind of experiment: Inhibitory activity on PDE I purified from canine tracheal smooth muscle (Test Example 1). The assay is classed as biochemical. Conditions: 10 μM; 1.0 μM [3H]cAMP substrate, CaCl2 and calmodulin. The method, then: as §1
Assay [6] can be described thus: Hypotensive effects in guinea pigs (Test Example 2). Conditions: anesthetized guinea pigs, in DMSO. The assay is classed as in vivo, guinea pig. The method, then: Hypotensive effects in guinea pigs.
After a guinea pig, anesthetized with pentobarbital, was fixed in the supine position, a cannula was inserted into trachea and guinea pig was artificially ventilated under the conditions of a tidal volume of […] and 60 breathes/min. The carotid artery and the jugular vein were cannulated for measuring arterial blood pressure and administering drugs, respectively. Drugs were dissolved in DMSO (50 μl) and administered intravenously using the above cannula.
The maximum percent values from the pre-drug level (100%) in mean blood pressure (mBP) were obtained.

As for `CCn1c(=O)[nH]c2cc3c(NCc4cccc(OC)c4)ncnc3cc21` [Compound 15, 3-ethyl-8-(3-methoxybenzylamino)-2,3-dihydro-1H-imidazo[4,5-g]quinazoline-2-one hydrochloride], in assay [1], the inhibition at 1 µM worked out at 50%. Moreover, the inhibition at 0.001 µM in assay [2] is 67%.
For `CCn1c(=O)[nH]c2cc3c(NCc4ccc(F)c(F)c4)ncnc3cc21` [Compound 20, 8-(3,4-difluorobenzylamino)-3-ethyl-2,3-dihydro-1H-imidazo[4,5-g]quinazoline-2-one hydrochloride] the same measures were 47% and 69%.
For the compound `CCn1c(=O)[nH]c2cc3c(NCC4CCCO4)ncnc3cc21` (stereo not drawn) [Compound 30, 3-ethyl-8-(2,3,4,5-tetrahydro-2-furylmethylamino)^- 2,3-dihydro-1H-imidazo[4,5-g]quinazoline-2-one hydrochloride], the IC50 is > 10000 nM in assay [3], 1100 nM in assay [1] and 0.18 nM in assay [2]. Further, the “PDE Inhibitory activity, PDE II, Percent inhibition” value in assay [4] was 61%. Also, the “PDE Inhibitory activity, PDE I, Percent inhibition” value in assay [5] is recorded as 58%.
`CCn1c(=S)[nH]c2cc3c(NCc4ccccc4)ncnc3cc21` [Compound 39, 8-benzylamino-3-ethyl-2,3-dihydro-1H-imidazo[4,5-g]quinazoline-2-thione]: the “maximum percent values from the pre-drug level (100%) in mean blood pressure (mBP)” value is reported as 100.20% in assay [6] (1 μg/kg i.v.), 80.00% in assay [6] (3 μg/kg i.v.), 72.30% in assay [6] (10 μg/kg i.v.) and 51.20% in assay [6] (30 μg/kg i.v.).
On to `CCCn1c(=S)[nH]c2cc3c(NCc4ccccc4)ncnc3cc21` [Compound 42, 8-benzylamino-3-(n-propyl)-2,3-dihydro-1H-imidazo[4,5-g]quinazoline-2-thione], for which, in assay [1], the inhibition at 1 µM is 27%. The inhibition at 0.001 µM in assay [2] was 94%.
Consider `CCn1c(=S)[nH]c2cc3c(NCc4ccncc4)ncnc3cc21.Cl.Cl` [Compound 47, 3-ethyl-8-(4-pyridylmethylamino)-2,3-dihydro-1H-imidazo[4,5-g]quinazoline-2-thione dihydrochloride], for which, in assay [3] (10 μM), the “PDE Inhibitory activity, PDE IV, Percent inhibition” value is 20%. For the same compound, the inhibition at 1 µM in assay [1] was found to be 60%. Besides, the “PDE Inhibitory activity, PDE II, Percent inhibition” value in assay [4] is reported as 19%. In addition, the “PDE Inhibitory activity, PDE I, Percent inhibition” value in assay [5] is 12%. Moreover, the inhibition at 0.001 µM in assay [2] was found to be 91%.
In the case of `CCn1c(=S)[nH]c2cc3c(NCc4cccc(OC)c4)ncnc3cc21` [Compound 51, 3-ethyl-8-(3-methoxybenzylamino)-2,3-dihydro-1H-imidazo[4,5-g]quinazoline-3-thione hydrochloride], the inhibition at 1 µM in assay [1] stood at 48%. In addition, the inhibition at 0.001 µM in assay [2] was found to be 97%.
For `CCn1c(=S)[nH]c2cc3c(NCc4cccc(C(F)(F)F)c4)ncnc3cc21` [Compound 54, 3-ethyl-8-(3-trifluoromethylbenzylamino)-2,3-dihydro-1H-imidazo[4,5-g]quinazoline-2-thione hydrochloride] the same measures were 32% and 96%.
